From ChEMBL document CHEMBL5303304, “EUbOPEN Chemogenomics Library - IncuCyte” (2023)

What was measured:
Assay type in all cases: toxicity, cell-based
HEK-293T = experiment: Incucyte cell viability with HEK293T; conditions: human, 10 µM, compound concentration 10 uM
Fibroblast = experiment: Incucyte cell viability with human fibroblast; conditions: 10 µM, compound concentration 10 uM
U2OS = experiment: Incucyte cell viability with U2OS; conditions: human, 10 µM, compound concentration 10 uM
Also: unitless GR value; below 1 slowed growth and below 0 cell loss.

Compound | Growth Rate (HEK-293T; 0 h, replicate number 1) | Growth Rate (HEK-293T; 0 h, replicate number 2) | Growth Rate (HEK-293T; 6 h, replicate number 2) | Growth Rate (HEK-293T; 12 h, replicate number 2) | Growth Rate (HEK-293T; 18 h, replicate number 1) | Growth Rate (HEK-293T; 24 h, replicate number 1) | Growth Rate (HEK-293T; 24 h, replicate number 2) | Growth Rate (Fibroblast; 6 h, replicate number 2) | Growth Rate (Fibroblast; 12 h, replicate number 2) | Growth Rate (Fibroblast; 18 h, replicate number 1) | Growth Rate (Fibroblast; 18 h, replicate number 2) | Growth Rate (Fibroblast; 24 h, replicate number 1) | Growth Rate (Fibroblast; 24 h, replicate number 2) | Growth Rate (Fibroblast; 0 h, replicate number 2) | Growth Rate (HEK-293T; 6 h, replicate number 1) | Growth Rate (HEK-293T; 12 h, replicate number 1) | Growth Rate (HEK-293T; 18 h, replicate number 2) | other results
CCNC1=N[C@@H]2[C@@H](O)[C@H](O)[C@@H](CO)O[C@@H]2S1 | -0.01 | -0.15 | 0.53 | 0.93 | 0.78 | 0.86 | 0.89 | 0.18 | 0.76 | 0.83 | 0.8 | 0.92 | 0.99 | – | – | – | – | Growth Rate (Fibroblast; 12 h, replicate number 1): 0.91; Growth Rate (U2OS; 0 h, replicate number 1): -0.37; Growth Rate (U2OS; 0 h, replicate number 2): 0.47; Growth Rate (U2OS; 6 h, replicate number 1): 0.53; Growth Rate (U2OS; 6 h, replicate number 2): 0.45; Growth Rate (U2OS; 12 h, replicate number 1): 0.86; Growth Rate (U2OS; 12 h, replicate number 2): 0.79; Growth Rate (U2OS; 18 h, replicate number 1): 0.91; Growth Rate (U2OS; 18 h, replicate number 2): 0.81; Growth Rate (U2OS; 24 h, replicate number 1): 0.95; Growth Rate (U2OS; 24 h, replicate number 2): 0.74
Fc1ccc(Cl)cc1-c1nc(Nc2ccncc2)c2nccnc2n1 | -0.93 | – | 0.79 | 0.91 | – | – | – | – | – | – | – | – | – | -0.5 | – | – | – | Growth Rate (U2OS; 0 h, replicate number 1): -0.59; Growth Rate (U2OS; 0 h, replicate number 2): 0.75; Growth Rate (U2OS; 6 h, replicate number 1): 0.78; Growth Rate (U2OS; 6 h, replicate number 2): 0.55; Growth Rate (U2OS; 12 h, replicate number 1): 0.86; Growth Rate (U2OS; 12 h, replicate number 2): 0.77; Growth Rate (U2OS; 18 h, replicate number 1): 0.67; Growth Rate (U2OS; 18 h, replicate number 2): 0.87; Growth Rate (U2OS; 24 h, replicate number 1): 0.95; Growth Rate (U2OS; 24 h, replicate number 2): 0.75
O=C(Nc1ccc(C(O)(C(F)(F)F)C(F)(F)F)cc1)c1ccc(C(F)(F)F)cc1 | – | -0.33 | 0.09 | 0.2 | 0.04 | 0.05 | 0.15 | -0.08 | 0.22 | 0.52 | 0.11 | 0.47 | 0.07 | – | -0.31 | -0.13 | 0.18 | Growth Rate (Fibroblast; 6 h, replicate number 1): 0.78; Growth Rate (Fibroblast; 12 h, replicate number 1): 0.64
Cc1[nH]c2c(N3CCCCC3)c(-c3ccccc3)nn2c(=O)c1-c1ccc(O)cc1 | -0.59 | – | 0.55 | 0.88 | – | – | – | 0.19 | 0.39 | 0.73 | 0.35 | 0.64 | 0.24 | – | 0.95 | – | – | Growth Rate (Fibroblast; 0 h, replicate number 1): -0.08; Growth Rate (U2OS; 0 h, replicate number 1): -0.56; Growth Rate (U2OS; 6 h, replicate number 1): 0.77; Growth Rate (U2OS; 6 h, replicate number 2): 0.87; Growth Rate (U2OS; 12 h, replicate number 1): 0.9; Growth Rate (U2OS; 12 h, replicate number 2): 0.92; Growth Rate (U2OS; 18 h, replicate number 1): 0.85; Growth Rate (U2OS; 18 h, replicate number 2): 0.93; Growth Rate (U2OS; 24 h, replicate number 1): 0.78; Growth Rate (U2OS; 24 h, replicate number 2): 0.82
Cc1ncsc1-c1ccc(CNC(=O)[C@@H]2C[C@@H](O)CN2C(=O)[C@@H](NC(=O)C2(F)CC2)C(C)(C)C)c(OCCOc2ccc(CN3CCN(c4cc(-c5ccccc5O)nnc4N)CC3)cc2)c1 | -1 | – | – | – | – | – | – | – | – | – | – | – | – | -1 | – | – | – | –
COc1cc(C(=O)NCCOCCOCCOCCC(=O)Nc2cccc3c2C(=O)N(C2CCC(=O)NC2=O)C3=O)ccc1Nc1ncc(C(F)(F)F)c(Oc2cccc3c2C(=O)CC3)n1 (configuration not stated) | -0.87 | -0.99 | – | – | 0.71 | 0.61 | 0.74 | – | 0.65 | – | – | – | – | 0.45 | 0.89 | 0.57 | 0.69 | –
O=c1[nH]c(CS[C@H]2CC[C@H](O)CC2)nc2cc(OCC3CC3)cc(F)c12 | 0.63 | – | – | – | – | 0.87 | 0.94 | 0.65 | 0.67 | – | – | – | – | 0.47 | – | – | 1 | Growth Rate (U2OS; 0 h, replicate number 1): -0.28; Growth Rate (U2OS; 0 h, replicate number 2): 0.9; Growth Rate (U2OS; 6 h, replicate number 1): 0.81; Growth Rate (U2OS; 6 h, replicate number 2): 0.82; Growth Rate (U2OS; 12 h, replicate number 1): 0.45; Growth Rate (U2OS; 12 h, replicate number 2): 0.73; Growth Rate (U2OS; 18 h, replicate number 1): 0.92; Growth Rate (U2OS; 18 h, replicate number 2): 0.66; Growth Rate (U2OS; 24 h, replicate number 1): 0.98; Growth Rate (U2OS; 24 h, replicate number 2): 0.64
N=C(N)NCCC[C@H](NC(=O)CC1(CC(=O)N2CCN(C(c3ccccc3)c3ccccc3)CC2)CCCC1)C(=O)NCc1ccccc1.O=C(O)C(F)(F)F.O=C(O)C(F)(F)F | 0.71 | – | 0.95 | – | – | – | – | – | – | 0.47 | 0.92 | 0.8 | 0.64 | -0.98 | 0.7 | 0.89 | – | Growth Rate (Fibroblast; 6 h, replicate number 1): 0.88; Growth Rate (Fibroblast; 12 h, replicate number 1): 0.74
N=C(N)Nc1cc(C2CCNCC2)cc(C(F)(F)F)c1.O=C(O)C(F)(F)F.O=C(O)C(F)(F)F | 0.85 | -0.14 | – | – | 0.98 | 0.96 | – | – | – | – | – | 0.99 | – | -1 | 0.69 | 0.91 | – | –
COc1cc2nc([C@@H]3CCCS(=O)(=O)C3)n(C)c2cc1NC(=O)c1cccc(C(C)(F)F)n1 | -0.79 | -0.88 | – | – | – | – | – | – | – | – | – | – | – | -0.81 | – | – | – | –
c1ccc(C(OC2CCN(CCCc3nnn[nH]3)CC2)c2ccccc2)cc1 | – | – | 0.46 | 0.67 | 0.57 | 0.65 | 0.75 | -0.26 | – | – | 0.75 | – | – | – | 0.35 | 0.7 | 0.85 | –
C[C@@H](COCCC(=O)N1CCN(c2ncc(C(F)(F)F)cn2)CC1)Nc1cn[nH]c(=O)c1C(F)(F)F [ATAMPARIB] | 0.95 | 0.81 | 0.59 | 0.8 | – | – | 0.75 | 0.74 | 0.15 | 0.22 | 0.13 | 0.39 | 0.15 | – | – | – | 0.9 | Growth Rate (Fibroblast; 6 h, replicate number 1): 0.88; Growth Rate (Fibroblast; 12 h, replicate number 1): 0.3
Cc1ccc(NC(=O)c2ccc(CN3CC[C@H](N(C)C)C3)c(C(F)(F)F)c2)cc1Nc1nccc(-c2cncnc2)n1 [BAFETINIB] | – | – | – | 0.68 | 0.96 | 0.97 | – | -0.55 | 0.02 | 0.01 | 0.39 | 0.14 | 0.54 | 0.2 | 0.57 | 0.67 | 0.99 | Growth Rate (Fibroblast; 0 h, replicate number 1): -1; Growth Rate (Fibroblast; 6 h, replicate number 1): -0.23; Growth Rate (Fibroblast; 12 h, replicate number 1): 0.05
CCN(CC)C(=O)C1CN2CCc3cc(OC)c(OC)cc3C2CC1OC(C)=O (configuration not stated) [BENZQUINAMIDE] | 0.39 | – | 0.7 | 0.59 | – | – | 0.87 | -0.43 | 1 | – | 0.6 | – | 0.97 | – | – | – | 0.61 | –
CN(C)C(=O)Cn1cc(-c2nc(C3(c4ccc(-c5cnc(N)nc5)cc4)CC3)no2)cn1 [BI 0153] | 0.71 | – | – | – | 0.95 | 0.92 | – | -0.35 | 0.4 | 0.91 | 0.6 | 0.73 | 0.96 | -0.89 | 0.25 | – | – | Growth Rate (Fibroblast; 0 h, replicate number 1): -1; Growth Rate (Fibroblast; 6 h, replicate number 1): 0.57
CN[C@@H](C)C(=O)N[C@H](C(=O)N1CCC[C@H]1C(=O)Nc1sc(-c2ncco2)nc1-c1ccccc1)C1CCCCC1 [GDC-0917] | 0.71 | – | 0.98 | – | 0.86 | 0.92 | 0.99 | 0.6 | – | – | – | – | – | – | 0.6 | 0.93 | – | Growth Rate (Fibroblast; 0 h, replicate number 1): -1
CC(C)(O)c1cnc(N2C[C@@]3(CCC[C@](C)(Cn4cnc5ccc(C#N)cc54)C3)OC2=O)cn1 [GSK2798745] | – | – | 0.2 | 0.41 | 0.47 | 0.49 | 0.45 | -1 | -0.2 | -0.39 | 0.4 | – | 0.36 | – | -0.31 | 0.38 | 0.43 | Growth Rate (Fibroblast; 0 h, replicate number 1): 0.24
Cc1cccc(-c2[nH]c(CNc3ccccc3F)nc2-c2ccc3ncnn3c2)n1 [VACTOSERTIB] | 0.84 | -0.43 | 0.58 | – | – | – | – | – | – | 0.97 | – | – | – | -0.26 | 0.95 | – | – | –
